In PMC7785020, “A unique hormonal recognition feature of the human glucagon-like peptide-2 receptor” (Cell Research, 2020):
Positions count from the first letter of the chain named. Read-outs that look alike come from different tables or passages of the source. No end group written: not given here.

Legend:
Assay type in all cases: cell-based
[1] = molecular target: T1, GLP-2R W249^ECL1A (Homo sapiens, UniProt O95838, W249A); assay: cAMP accumulation, W249^ECL1A; design: WT (1–553); expressed in transfected cells; HEK 293T (cAMP); conditions: HEK 293T, 30 min, RT, mean ± SEM, n ≥ 3 in duplicate; for EC50: read-out: cAMP pEC50 (converted); for Emax: HEK-293T, read-out: cAMP Emax (% WT)
T1 sequence (O95838 1-553 W249A): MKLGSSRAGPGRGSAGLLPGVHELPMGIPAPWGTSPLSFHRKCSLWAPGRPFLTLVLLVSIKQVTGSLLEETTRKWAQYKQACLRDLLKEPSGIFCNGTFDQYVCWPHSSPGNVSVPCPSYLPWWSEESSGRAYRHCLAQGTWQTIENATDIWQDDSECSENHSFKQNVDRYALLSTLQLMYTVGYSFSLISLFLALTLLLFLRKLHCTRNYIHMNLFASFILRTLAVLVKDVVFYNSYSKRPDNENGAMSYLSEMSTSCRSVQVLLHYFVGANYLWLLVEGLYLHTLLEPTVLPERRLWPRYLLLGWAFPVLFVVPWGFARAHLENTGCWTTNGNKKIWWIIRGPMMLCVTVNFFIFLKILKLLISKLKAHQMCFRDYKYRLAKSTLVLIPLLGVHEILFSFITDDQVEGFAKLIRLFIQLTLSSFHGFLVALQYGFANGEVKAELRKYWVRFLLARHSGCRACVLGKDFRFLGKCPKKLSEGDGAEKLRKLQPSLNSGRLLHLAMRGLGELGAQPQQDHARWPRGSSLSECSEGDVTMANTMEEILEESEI
Method: (§1) They were seeded onto 6-well cell culture plates and transiently transfected with different GLP-2R constructs using Lipofectamine 2000 transfection reagent (Invitrogen, Carlsbad, CA, USA). After 24 h, the transfected cells were seeded onto 384-well microtiter plates (3000 cells per well) in HBSS supplemented with 5 mM HEPES, 0.1% (w/v) bovine serum albumin (BSA) and 0.5 mM 3-isobutyl-1- methylxanthine, and stimulated with increasing concentrations of GLP-2 for 30 min at RT. Eu and Ulight were diluted by cAMP detection buffer and added to the plates separately to terminate the reaction. Plates were incubated at RT for 60 min before measuring the fluorescence intensity at 620 nm and […] by an EnVision multilabel plate reader (PerkinElmer, Boston, USA).

[2] = molecular target: T2, GLP-2R R242^ECL1E (Homo sapiens, UniProt O95838, R242E); assay: cAMP accumulation, R242^ECL1E; design: WT (1–553); expressed in transfected cells; HEK 293T (cAMP); conditions: HEK 293T, 30 min, RT, mean ± SEM, n ≥ 3 in duplicate; for Emax: HEK-293T, read-out: cAMP Emax (% WT); for EC50: read-out: cAMP pEC50 (converted)
T2 sequence (O95838 1-553 R242E): T1 sequence (O95838 1-553 W249A) with R242E, A249W
Method: as §1

[3] = molecular target: GLP-1R (WT) (Homo sapiens, UniProt P43220); assay: cAMP accumulation, WT GLP-1R; design: expressed in transfected cells; host or cells: HEK 293T; conditions: Table S5, GLP-1R (WT), HEK 293T, 30 min, RT, mean ± SEM, n ≥ 3 in duplicate; for EC50: read-out: cAMP pEC50 (converted)
GLP-1R (WT), sequence (P43220 24-463, species assumed): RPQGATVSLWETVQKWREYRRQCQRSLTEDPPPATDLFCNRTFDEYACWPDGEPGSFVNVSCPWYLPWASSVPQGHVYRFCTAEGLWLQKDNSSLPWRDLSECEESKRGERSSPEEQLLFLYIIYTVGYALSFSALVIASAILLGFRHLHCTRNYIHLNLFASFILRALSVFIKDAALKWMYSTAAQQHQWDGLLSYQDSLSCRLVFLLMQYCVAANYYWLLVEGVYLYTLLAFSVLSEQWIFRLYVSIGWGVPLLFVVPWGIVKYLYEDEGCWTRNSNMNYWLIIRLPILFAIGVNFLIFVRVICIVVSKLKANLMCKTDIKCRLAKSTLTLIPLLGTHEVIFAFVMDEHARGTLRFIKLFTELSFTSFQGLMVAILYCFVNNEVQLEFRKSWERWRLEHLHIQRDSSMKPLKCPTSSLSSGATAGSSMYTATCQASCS

[4] = molecular target: T3, GLP-2R Y252^ECL1A (Homo sapiens, UniProt O95838, Y252A); assay: cAMP accumulation, Y252^ECL1A; design: WT (1–553); expressed in transfected cells; HEK 293T (cAMP); conditions: HEK 293T, 30 min, RT, mean ± SEM, n ≥ 3 in duplicate; for Emax: HEK-293T, read-out: cAMP Emax (% WT); for EC50: read-out: cAMP pEC50 (converted)
T3 sequence (O95838 1-553 Y252A): T1 sequence (O95838 1-553 W249A) with A249W, Y252A
Method: as §1

EC50 ([1]; Table S5, W249A) [nM] | Emax ([2]; Table S5, R242E) [%] | EC50 ([2]; Table S5, R242E) [nM] | Emax [3] [%] | EC50 [3] [nM] | Emax ([4]; Table S5, Y252A) [%] | EC50 ([4]; Table S5, Y252A) [nM] | Compound | Emax ([1]; Table S3, W249A) [%] | Emax ([1]; Table S5, W249A) [%] | Emax ([2]; Table S3, R242E) [%] | Emax ([4]; Table S3, Y252A) [%]
6310 | 103 ± 3.5 | 5.01 | 112 ± 2.8 | 3.16 | 104 ± 2.1 | 3.98 | HADGSFSDEMNTILDNLAAKEFIAWLVKGRG [Chimeric GLP-1/GLP-2 (20-33)] |  |  |  | 
 | 108 ± 5.5 | 39.8 | 105 ± 2.4 | 0.0126 | 106 ± 5.1 | 50.1 | HADGSFTSDVSSYLEGQAARDFINWLIQTKITD [Chimeric GLP-1/GLP-2 (7-19)] |  |  |  | 
1260 | 108 ± 3.2 | 25.1 | 7.1 ± 3.2 | 7.94 | 103 ± 3.1 | 6.31 | HAEGTFSDEMNTILDNLAARDFINWLIQTKITD [Chimeric GLP-1/GLP-2 (1-6)] |  |  |  | 

Compound | EC50 ([1]; Table S5, W249A) [nM] | Emax ([2]; Table S5, R242E) [%] | EC50 ([2]; Table S5, R242E) [nM] | Emax [3] [%] | EC50 [3] [nM] | Emax ([4]; Table S5, Y252A) [%] | EC50 ([4]; Table S5, Y252A) [nM] | Emax ([1]; Table S3, W249A) [%] | Emax ([1]; Table S5, W249A) [%] | Emax ([2]; Table S3, R242E) [%] | Emax ([4]; Table S3, Y252A) [%]
CC[C@H](C)[C@H](NC(=O)[C@H](Cc1ccccc1)NC(=O)[C@H](CC(=O)O)NC(=O)[C@H](CCCNC(=N)N)NC(=O)[C@H](C)NC(=O)[C@H](C)NC(=O)[C@H](CC(C)C)NC(=O)[C@H](CC(N)=O)NC(=O)[C@H](CC(=O)O)NC(=O)[C@H](CC(C)C)NC(=O)[C@@H](NC(=O)[C@@H](NC(=O)[C@H](CC(N)=O)NC(=O)[C@H](CCSC)NC(=O)[C@H](CCC(=O)O)NC(=O)[C@H](CC(=O)O)NC(=O)[C@H](CO)NC(=O)[C@H](Cc1ccccc1)NC(=O)[C@H](CO)NC(=O)CNC(=O)[C@H](CC(=O)O)NC(=O)[C@H](C)NC(=O)[C@@H](N)Cc1c[nH]cn1)[C@@H](C)O)[C@@H](C)CC)C(=O)N[C@@H](CC(N)=O)C(=O)N[C@@H](Cc1c[nH]c2ccccc12)C(=O)N[C@@H](CC(C)C)C(=O)N[C@H](C(=O)N[C@@H](CCC(N)=O)C(=O)N[C@H](C(=O)N[C@@H](CCCCN)C(=O)N[C@H](C(=O)N[C@H](C(=O)N[C@@H](CC(=O)O)C(=O)O)[C@@H](C)O)[C@@H](C)CC)[C@@H](C)O)[C@@H](C)CC [Human GLP-2 (1–33)] |  | 103 ± 2.3 |  | 4 ± 3.1 | 5.01 | 102 ± 2.2 |  | 128 ± 162 | 113 ± 4.1 | 108 ± 1.9 | 103 ± 2.6
